Series [1] deals with advanced colorectal cancer. As to conditions: cited from earlier work.
Series [2] has as its system human colon tumor COLO 205. As to the kind of experiment: Efficacy study in COLO 205 human colon tumor xenografts, q4d×3 (Example 3). As to conditions: 5-FU 75 mg/kg/dose. As for the experimental part: The both studies were conducted as follows.
5-FU alone was administered i.v. on the same q4d×3 treatment schedule at doses of 75 mg/kg/dose (225 mg/m2/dose). 5-FU was formulated in saline fresh on each day of treatment at a concentration of 3.75 mg/mL, at pH 9.2. […] Both individual compounds and their mixture were administered according to exact body weight with injection volume being 0.2 mL/10 g body weight.
There were a total of four groups of 10 animals each, s.c.-implanted with COLO 205 human colon tumor xenografts.
(In general: Xenograft models place foreign cells or tissue in a host animal.)

Series [3] concerns COLO 205 human colon tumor xenografts. As to the kind of experiment: Efficacy and compatibility with leucovorin in COLO 205 human colon tumor xenografts, q4d×4 (Example 4). The note with it: GM 120 mg/kg/dose. The procedure: The principal differences with the study described in Example 3 were that (a) the galactomannan was from another source, of a different size (molecular weight) and with a different Man/Gal ratio, (b) there were four consecutive injections, not three, (c) there were four doses of the galactomannan tested, not one, (d) 5-FU was administered (i.v.) in 48 mg/kg/dose, not 75 mg/kg/dose, as in the first study, and (e) galactomannan (i.v. injection) was compared with leucovorin (oral gavage, administered two hours after 5-FU) in terms of efficacy and toxicity. […] 5-FU alone was administered i.v. on the same q4d×4 treatment schedule at dosages of 48 mg/kg/dose. 5-FU was formulated in saline fresh on each day of treatment at a concentration of 4.8 mg/mL, at pH 9.2. […] Leucovorin powder (clinical formulation, Leucovorin calcium for injection) was reconstituted with water for injection to yield a concentration of 10 mg/mL. On each day of treatment the stock solution was diluted with water for injection to yield a concentration of 2.5 mg/mL.
Two more combination-treatment groups were also included in the study. One group of mice was treated with 5-FU (48 mg/kg/dose, i.v., q4d×4), followed by oral gavage (p.o.) with leucovorin, administered two hours after 5-FU at a dosage of 25 mg/kg/dose. Another two groups of mice were treated with 5-FU in a combination with the galactomannan (48 mg/kg/dose and 120 mg/kg/dose, respectively, i.v., q4d×4), followed by p.o. leucovorin treatment, administered at a dosage of 25 mg/kg/dose two hours after 5-FU plus the galactomannan.
There were a total of nine groups of 10 animals each, s.c.-implanted with COLO 205 human colon tumor xenografts.

A further series has as its system mice. As to the kind of experiment: Acute toxicology, single IV dose in mice. It is filed as in vivo. The note with it: single IV dose 409 mg/kg (1227 mg/m2) 5-FU. As for the experimental part: Acute toxicology studies of the galactomannan of the present invention were performed in mice, rats and dogs and subchronic toxicology studies were performed in rats and dogs. The following is a summary of the findings of these studies: […]

Series [4] deals with rats. As to the kind of experiment: Acute toxicology, single IV dose in rats. It is filed as in vivo. As to conditions: 5-FU 140 mg/kg, galactomannan 72 mg/kg, combination 140/72 mg/kg, n=5/sex/group. As for the experimental part:
(§1) Acute toxicology studies of the galactomannan of the present invention were performed in mice, rats and dogs and subchronic toxicology studies were performed in rats and dogs. The following is a summary of the findings of these studies:
In rats (n=5/sex/group), single IV doses of 140 mg/kg (840 mg/m2) 5-FU, 72 mg/kg (432 mg/m2) galactomannan or 140/72 mg/kg of the combination produced no deaths in any of the groups.
Toxic changes in body weight, feed consumption, and hematology were less severe in the rats injected with the combination, versus those injected with 5-FU alone.

The subject of another series is dogs. As to the kind of experiment: Acute toxicology, single IV injection in dogs. In kind it is in vivo. As to conditions: 5-FU 28.5 mg/kg, galactomannan 15 mg/kg, combination 28.5/15 mg/kg. As for the experimental part:
as §1
The surviving dogs remained clinically normal and had no treatment-related changes in body weight, feed consumption, ECG tracings, clinical pathology or gross tissue changes during the 21-day study period.

Series [5] deals with rats. As to the kind of experiment: 28-day subchronic rat study (Example 7). In kind it is in vivo. As to conditions: 48 mg/kg 5-FU, daily IV for four consecutive days. The procedure: In the 28-day subchronic rat study performed with research grade unfiltered galactomannan, single daily IV doses of 10 mL/kg saline, 48 mg/kg (288 mg/m2) 5-FU, 48 mg/kg (288 mg/m2) galactomannan or 24/13 mg/kg (144/78 mg/m2), 36/19 mg/kg (216/114 mg/m2) or 48/25 mg/kg (288/150 mg/m2) of the 5-FU/galactomannan combination were given at a rate of 1 mL/min for four consecutive days. The four doses of 5-FU produced mortality (7/8 with 48 mg/kg 5-FU; 1/8, 2/8 and 7/8 with 24/13, 36/19 and 48/25 mg/kg 5-FU/galactomannan, respectively).
Lesions in unscheduled-death animals were primarily due to the expected action of 5-FU on the hematopoietic and lymphoid systems, with secondary bacterial invasion and disseminated hemorrhage due to effects on coagulation. At the study day 5 necropsy, lesions included pronounced hypocellularity of the bone marrow, lymphoid atrophy of the thymus and atrophy of villi in the various segments of the small intestine (all considered due to the expected action of 5-FU). With the exception of the mild granulomatous foci in the lungs, treatment-related histopathological lesions were resolved in animals sacrificed at study day 29 (only one female survived in Group 2 and Group 6).

In the next series the test system is beagle dogs. Briefly: 28-day canine study (Example 9). It is filed as in vivo. The note with it: 6 mg/kg (120 mg/m2) 5-FU, daily IV for four consecutive days. The procedure: In a 28-day canine study, single daily IV doses of saline, 6 mg/kg (120 mg/m2) 5-FU and ([…] (240 mg/m2) galactomannan or 4/2 mg/kg (80/40 mg/m2), 6/3.2 mg/kg (120/64 mg/m2) or 6/6 mg/kg (120/120 mg/m2) 5-FU/galactomannan were injected for four consecutive days to six groups of beagle dogs Mortality occurred in 13 of 48 dogs (five moribund sacrifices and eight found dead) between Study Days 2 and 5 (4/4 males on 5-FU; 3/4 males in the 4/2 mg/kg 5-FU/galactomannan group; 2/4 males and 1/4 females in the 6/3.2 and 6/6 mg/kg 5-FU/galactomannan groups, respectively).
Adverse effects in 5-FU groups included ataxia, prostration, vocalization, convulsions, tremors, hypersensitivity to touch, aggressive behavior (resulting in only three doses being given to the 6/3.2 5-FU/galactomanna group), emesis, salivation, soft stools and decreased red cell parameters and platelet counts. […] At the day 5 necropsy, treatment-related histological changes were largely limited to the 5-FU females. At day 29 necropsy, there were no remarkable changes in the survivors.

Where [6] appears, read: q4d×4, 5-FU 48 mg/kg/dose i.v., leucovorin oral 25 mg/kg/dose.

As for `O=C1[O][Pt]2([NH][C@@H]3CCCC[C@H]3[NH]2)[O]C1=O` [Oxaliplatin], in series [1] (previously treated colorectal cancer patients), the “single agent response rate” value is on record as 10%.

Take `O=c1[nH]cc(F)c(=O)[nH]1` [5-FU, 5-fluorouracil, reference compound]: in series [2] (i.v. q4d×3, GM 120 mg/kg/dose), the mean survival time was 23.7 days, the “median to quadrupling of tumor volume” value amounted to 23.7 days, the “median tumor volume after 56 days of the study” value is given as 2254 mm3 and the “tumor regression after 56 days of the study” value is given as “no tumor regression”. Besides, the treatment-related deaths entry in series [2] (i.v. q4d×3, GM 120 mg/kg/dose, 10 mice per group, within two weeks) is “three of ten”. The “time required to quadruple tumor weight” value in series [2] (intravenous, galactomannan 120 mg/kg/day (360 mg/m2)) worked out at 23.5 days. Also, in series [3] (i.v. q4d×4, 5-FU 48 mg/kg/dose), the “median to quadrupling of tumor volume” value is 8.7 days and the “median tumor volume after 13 days” value is reported as 800 mm3. Moreover, in series [3] (setting [6]), the “median days to quadrupling of tumor weight” value stood at 8.7 days; the “tumor weight at Day 13 from treatment initiation, mean” value was 734 mg; the “tumor weight at Day 13 from treatment initiation, median” value came to 800 mg. Besides, in the series on mice, the death was 3/5 and the time of death was 13 to 16 days. Also, the deaths entry in the series with rats [4] was “no deaths”. For the same molecule, the death in the series with dogs was 2/2. In addition, the mortality in the series on rats [5] is 7/8. Further, the “mortality between Study Days 2 and 5” value with beagle dogs is recorded as 4/4. Besides, the “patients with hand-foot syndrome” value in series [1] (continuous infusion regimens) was “approximately 20%”.

These data come from US7893252B2, “Selectively depolymerized galactomannan polysaccharide” (priority 2003, dated 2011).
